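Assay format: 96-well plates, 48-hour exposure. The concentration for 50% growth inhibition is given as GI50.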 Calls of active or inactive are those of the source. Rule as the data show it: active = GI50 up to about 1.1 µM and inactive = higher.
Tests used:
Experiment in all cases: growth of human tumour cells (NCI), 48 h
UO-31 = system: UO-31
HT-29 = system: HT-29
SK-MEL-28 = system: SK-MEL-28
A549 = system: A549
K562 = system: K562
Malme-3M = system: Malme-3M
HCT-116 = system: HCT-116
SN12C = system: SN12C
RPMI-8226 = system: RPMI-8226
HL-60 = system: HL-60
DMS-273 = system: DMS-273
NCI/ADR-RES = system: NCI/ADR-RES
SW-620 = system: SW-620
COLO 205 = system: COLO 205
KM-20L2 = system: KM-20L2
LOX IMVI = system: LOX IMVI
SK-MEL-2 = system: SK-MEL-2
MCF7 = system: MCF7
IGROV-1 = system: IGROV-1
SF-268 = system: SF-268
SNB-78 = system: SNB-78
NCI-H23 = system: NCI-H23
A498 = system: A498
NCI-H460 = system: NCI-H460
SF-539 = system: SF-539
OVCAR-5 = system: OVCAR-5
UACC-62 = system: UACC-62
SK-OV-3 = system: SK-OV-3
HCC 2998 = system: HCC 2998
SNB-19 = system: SNB-19
HOP-18 = system: HOP-18
DLD-1 = system: DLD-1
OVCAR-3 = system: OVCAR-3
CCRF-CEM = system: CCRF-CEM
NCI-H226 = system: NCI-H226
OVCAR-8 = system: OVCAR-8
U-251 = system: U-251
SF-295 = system: SF-295
MOLT-4 = system: MOLT-4
XF498 = system: XF498
HOP-62 = system: HOP-62
RXF 393 = system: RXF 393
M19-MEL = system: M19-MEL
SK-MEL-5 = system: SK-MEL-5
KM12 = system: KM12
OVCAR-4 = system: OVCAR-4
EKVX = system: EKVX
UACC-257 = system: UACC-257
HOP-92 = system: HOP-92
HCT-15 = system: HCT-15
SNB-75 = system: SNB-75
DMS-114 = system: DMS-114
786-0 = system: 786-0
M14 = system: M14
ACHN = system: ACHN
LXFL 529 = system: LXFL 529
CAKI-1 = system: CAKI-1
TK-10 = system: TK-10
NCI-H522 = system: NCI-H522
SR = system: SR

Measured: GI50

CN(C)CCNC(=O)c1cccc2c1Nc1ccccc1S2
16 µM: HCT-15
inactive: UO-31 10.1 µM | HT-29 11.7 µM | SK-MEL-28 14.4 µM | A549 14.7 µM | K562 14.9 µM | Malme-3M 14.8 µM | HCT-116 12.2 µM | SN12C 13 µM | RPMI-8226 9.57 µM | HL-60 5 µM | DMS-273 13.7 µM | NCI/ADR-RES 16.2 µM | SW-620 16.7 µM | COLO 205 11.8 µM | KM-20L2 16.2 µM | LOX IMVI 12.2 µM | SK-MEL-2 16.3 µM | MCF7 13 µM | IGROV-1 11.3 µM | SF-268 15.8 µM | SNB-78 12.2 µM | NCI-H23 14.6 µM | A498 10.6 µM | NCI-H460 11.2 µM | SF-539 15.2 µM | OVCAR-5 13.4 µM | UACC-62 14.6 µM | SK-OV-3 16.1 µM | HCC 2998 13.9 µM | SNB-19 9.75 µM | HOP-18 11.9 µM | DLD-1 15.6 µM | OVCAR-3 14.5 µM | CCRF-CEM 12.4 µM | NCI-H226 11.5 µM | OVCAR-8 15.8 µM | U-251 13.7 µM | SF-295 14.5 µM | MOLT-4 10.6 µM | XF498 12.6 µM | HOP-62 15.7 µM | RXF 393 9.35 µM | M19-MEL 15.6 µM | SK-MEL-5 13.2 µM | KM12 12.7 µM | OVCAR-4 13.4 µM | EKVX 5.45 µM | UACC-257 13.7 µM | HOP-92 2.08 µM | SNB-75 6.81 µM | DMS-114 6.76 µM

c1cc2ccc1C1NCCCN1CCN1CCCNC1c1ccc(cc1)C1NCCCN1CCN1CCCNC21 (configuration not stated)
61.8 µM: HCT-15
inactive: UO-31 > 100 µM | HT-29 > 100 µM | SK-MEL-28 > 100 µM | A549 > 100 µM | K562 37 µM | Malme-3M 44.4 µM | HCT-116 42.6 µM | 786-0 > 100 µM | SN12C > 100 µM | RPMI-8226 70.6 µM | HL-60 20.1 µM | DMS-273 > 100 µM | SW-620 18.5 µM | COLO 205 54.3 µM | KM-20L2 > 100 µM | LOX IMVI 92.3 µM | SK-MEL-2 > 100 µM | IGROV-1 > 100 µM | M14 99.8 µM | SF-268 > 100 µM | NCI-H23 > 100 µM | A498 > 100 µM | NCI-H460 77.3 µM | SF-539 > 100 µM | OVCAR-5 > 100 µM | UACC-62 > 100 µM | SK-OV-3 > 100 µM | SNB-19 > 100 µM | HOP-18 > 100 µM | DLD-1 > 100 µM | OVCAR-3 50.7 µM | CCRF-CEM 41.8 µM | OVCAR-8 > 100 µM | U-251 54.2 µM | SF-295 > 100 µM | MOLT-4 > 100 µM | ACHN > 100 µM | XF498 > 100 µM | HOP-62 > 100 µM | M19-MEL 95.7 µM | SK-MEL-5 > 100 µM | LXFL 529 78.7 µM | KM12 > 100 µM | OVCAR-4 > 100 µM | CAKI-1 > 100 µM | EKVX > 100 µM | UACC-257 > 100 µM | HOP-92 > 100 µM | TK-10 > 100 µM | SNB-75 > 100 µM | NCI-H522 23.1 µM | DMS-114 > 100 µM

c1ccc(-c2[nH]c(-c3ccccc3)c(-c3cnccn3)c2-c2cnccn2)cc1
inactive: UO-31 > 100 µM | HT-29 91.2 µM | SK-MEL-28 > 100 µM | A549 > 100 µM | K562 > 100 µM | Malme-3M > 100 µM | HCT-116 > 100 µM | 786-0 > 100 µM | SN12C > 100 µM | RPMI-8226 82.6 µM | HL-60 > 100 µM | DMS-273 > 100 µM | SW-620 > 100 µM | COLO 205 > 100 µM | KM-20L2 > 100 µM | LOX IMVI > 100 µM | SK-MEL-2 > 100 µM | IGROV-1 > 100 µM | M14 > 100 µM | SF-268 > 100 µM | SNB-78 > 100 µM | NCI-H23 > 100 µM | A498 > 100 µM | NCI-H460 > 100 µM | SF-539 > 100 µM | OVCAR-5 > 100 µM | UACC-62 > 100 µM | SK-OV-3 > 100 µM | HCC 2998 > 100 µM | SNB-19 > 100 µM | HOP-18 > 100 µM | DLD-1 > 100 µM | OVCAR-3 > 100 µM | CCRF-CEM > 100 µM | NCI-H226 > 100 µM | OVCAR-8 > 100 µM | U-251 > 100 µM | SF-295 > 100 µM | MOLT-4 > 100 µM | SR 82.8 µM | ACHN > 100 µM | XF498 95.7 µM | HOP-62 > 100 µM | RXF 393 > 100 µM | M19-MEL > 100 µM | SK-MEL-5 > 100 µM | KM12 30.3 µM | OVCAR-4 > 100 µM | CAKI-1 > 100 µM | EKVX > 100 µM | UACC-257 > 100 µM | HOP-92 > 100 µM | TK-10 > 100 µM | SNB-75 31.9 µM | NCI-H522 > 100 µM | DMS-114 > 100 µM
> 100 µM: HCT-15

From ChEMBL document CHEMBL1201862, “PubChem BioAssay data set” (2004)
